Assay results: PMC6723591, “Anti-Inflammatory Cembrane-Type Diterpenoids and Prostaglandins from Soft Coral Lobophytum sarcophytoides” (Marine Drugs, 2019)

System: LPS-activated NO production in RAW264.7 cells
Experiment: Inhibition of LPS-activated NO production in RAW264.7 cells (Griess assay)
Type: cell-based
Conditions: Mus musculus, LPS-activated RAW264.7 cells
Protocol: All isolated compounds (except for 14 with limited amount) were tested for their inhibition activity against LPS-activated NO production in RAW264.7 cells using the Griess assay. […] The structure of PGA2 made a more positive contribution to the anti-inflammatory activity than those of PGB2 (16 vs. 15).
The anti-inflammation activity of the isolated compounds was evaluated according to the reported procedures.

Row | Compound | IC50 [µM]
1 | CCCCCC(O)C=CC1=C(CC=CCCCC(=O)O)C(=O)CC1 (stereo not drawn) [Compound 10, (5E)-PGB2] | 20.4
2 | C=C1CC[C@@H](C(C)C)/C=C/[C@@](C)(O)C/C=C/[C@](C)(O)CC[C@@H]1O [Compound 7, (1S,2E,4S,6E,8S,11R)-2,6,12(20)-cembratriene-4,8,11-triol] | 17.6
3 | CCCCC[C@H](O)/C=C/C1=C(C/C=C\CCCC(=O)O)C(=O)CC1 [Compound 15, PGB2] | 15.9
4 | CCCCCC(O)CCC1=C(CC=CCCCC(=O)O)C(=O)CC1 (stereo not drawn) [Compound 12, 13,14-dihydro-PGB2] | 24.8
5 | CCCCCC(O)CCC1=C(CC=CCCCC(=O)OC)C(=O)CC1 (stereo not drawn) [Compound 13, 13,14-dihydro-PGB2-Me] | 16.1
6 | CC1=CC2OCC(C)=C2CCC2(C)OC2CCC(C)(O)C=CC1 (stereo not drawn) [Compound 6] | 26.7
7 | CC(=O)C=C=C1C(C)(C)C[C@H](OC(C)=O)C[C@@]1(C)O [Compound 9, apo-9′-fucoxanthinone] | 32.1
8 | CCCCC[C@H](O)/C=C/[C@H]1C=CC(=O)[C@@H]1C/C=C\CCCC(=O)O [Compound 16, PGA2] | 7.1
9 | COc1ccc2c(c1)c(CC(=O)O)c(C)n2C(=O)c1ccc(Cl)cc1 [indomethacin, reference compound] | 39.8
